Patent publication US11242370B2, “Neuregulin-4 compounds and methods of use” (Eli Lilly and Company, priority 2019, dated 2022)
Numbering of substitutions follows the chain as printed. Names may count otherwise. Marks after values point to notes of the source that are not given here.

Assays:
[1] = tested on: rat model of heart failure with reduced ejection fraction (HFrEF); assay: Rat MI model, captopril, Example 10 or combination, echocardiography; assay type: in vivo; set-up: Left Ventricle Diameter (end diastole): unit not given here
Procedure: A nonclinical efficacy pharmacology study is conducted in a rat model of heart failure with reduced ejection fraction (HFrEF) to evaluate cardiac function and structure changes after captopril treatment, Example 10 treatment or combination treatment.
The left coronary artery is permanently ligated. All rats are individually housed in a temperature and humidity controlled room and maintained on a 12 hour light/dark cycle. Two to three weeks after surgery, rats undergo transthoracic echocardiography for determination of ejection fraction (EF %) and left ventricle dimensions (LVD) using a Vevo 2100 ultrasound system. Rats are randomized across treatment groups according to EF % and LVD.
Measurements of EF % and LVD are expressed as mean values±standard error (SE). Statistical analysis is performed with JMP® 13 software (SAS Institute, Inc.; Cary, N.C.) and Dunnett's Test is used for statistical comparisons across treatment groups. Statistical significance is accepted at P<0.05.
Three weeks after MI surgery, animals are randomized to 2 treatment groups (Placebo or captopril, 2 g/L in drinking water, ad lib) according to EF % and LVD. Three weeks and four weeks after dosing starts, cardiac function (EF %) and structure (LVD) are evaluated by transthoracic echocardiography. Animals are further randomized to additional groups based on cardiac function (EF %) and structure (LVD) to the following groups: Placebo, Example 10, captopril and Example 10+captopril. Animals in the Example 10 groups receive a single injection on week 4 after the 2nd randomization. Cardiac function (EF %) and structure (LVD) are evaluated on week 5 and 6.

[2] = target: T1, human HER2 and HER4 (Homo sapiens, UniProt Q15303); assay: Screening by human HER2-HER4 mediated ERK 1/2 phosphorylation in CHO-hHER2-hHER4 (clone 1H6) cells; assay type: cell-based; conditions: Fc variants as 293F supernatants
T1 construct: expressed in transfected cells
Procedure: A cell based assay utilizing CHO-K1 cells overexpressing human or rat HER receptors is used to determine activity of NRG4 compounds. CHO-K1 cells (ATCC) are grown in DMEM-F12 3:1 with 5% FBS with 20 mM HEPES, 40 μg/mL L-Proline, lx antibiotics and were split 1:5 every 2-3 days with TripLE Express (Gibco). Cells are transfected with plasmid DNA encoding HER receptors in pairs (hHER2-3, hHER2-4, rHER2-3 and rHER2-4) with Fugene 6 (Promega) according to the manufacturer's instructions. […] Transfected cells are selected with Puromycin (12 ug/ml) and Hygromycin (1 mg/ml) for 3-4 weeks and clonal lines are obtained by limited dilution cloning into 96 well plates. Clonal lines are selected by appropriate gene expression of HER2, HER3 or HER4 by Taqman method. Lines with appropriate receptor expression are confirmed by NRG1 induced phospho-ERK 1/2 responses. Clones are grown up, harvested, aliquoted into cryovials and then frozen under liquid nitrogen for long-term storage.
A phospho-ERK1/2 activity assay is used to determine potencies of NRG4 compounds. The potency of Examples 1-8 and 10 as compared to WT human NRG1 and/or human NRG4 are analyzed in studies measuring stimulation of human HER2-HER4 mediated ERK 1/2 phosphorylation. This assay comprises a CHO-K1 stable line expressing human HER2 and HER4. CHO-hHER2-hHER4 (clone 1H6) cells are routinely cultured in DMEM: F12(3:1), 5% FBS, 40 μg/mL L-Proline, 10 μg/mL puromycin and 1 mg/mL hygromycin at 37° C., 5% CO2. Cells are washed twice with 1×PBS, dissociated with 0.05% trypsin/[…] EDTA and collected by centrifugation at 300×g for 10 m. Cells are re-suspended in maintenance media. 20,000 cells/well, in 30 μL, are seeded into 384 well Poly-D-Lysine cell culture plates (Greiner, Cat No. 781946). Plates are covered with a manufacturer's lid and moved to a 37° C. tissue culture incubator at 5% CO^2, 80%+ humidity and allowed to adhere. After 24 h, media are removed from the plates and replaced with 30 μL serum-free starvation media (Low glucose DMEM with 0.1% BSA) using a Biomek FX liquid handler. Plates are returned to the incubator for 24 h.
hFcNRG4 variants, transiently expressed as 293F supernatants, are prepared in starvation media in a clear 384W plate (Greiner, cat no. 781185) as a 4pt 1:8 serial dilution (dose range averaged between 250 pM to 140000 pM). Media are removed from the cell culture plates and the 30 uL/well prepared variants are stamped into the plates using a Biomek FX liquid handler. Plates are sealed with a foil seal and stimulated for 15 minutes at room temperature on an orbital shaker. Cells are then washed once with 50 uL cold PBS. 30 uL lysis buffer is added to the cells and oscillated for 10 m at RT on an orbital shaker.
Detection of phosphorylation of ERR 1/2 is performed with either an AlphaScreen SureFire phospho-ERK1/2 kit (T202/Y204) (Perkin Elmer, catalog no. TGRES) or an AlphaLISA® SureFire® Ultra™ p ERK1/2 assay kit together with the AlphaScreen Protein. A IgG Detection Kit (Protein-A) (PerkinElmer, catalogue no. 6760617). After lysis of the CHO-K1 cells. 4 μL lysate is transferred to a 384W Alpha Proxiplate (Perkin Elmer, cat no, 6008280) with a 384W Biomek FX. 4 uL positive and negative lysates (Perkin Elmer, TGRES-L) are added to available wells as controls. 5 uL/well acceptor mix (containing anti-phoso-Thr202/Tyr204 antibodies and Protein A conjugated acceptor beads) is added to the plate with a Forumlatrix Mantis. The plate is sealed, spun down for 1 min at 300×g and incubated for 2 hr at room temperature on an orbital shaker. 2 μL/well donor mix (containing strepavidin coated donor beads and biotinylated antibodies to a distal ERK1/2 epitope) is dispensed by Mantis. The plate is sealed, spun down for 1 min at 300×g and incubated for 2 hr at room temperature on an orbital shaker before reading on the Perkin Elmer Envision 2103 Multilabel Reader (HIS Alpha mode, excitation time: 40 ms, total measurement time: 130 ms). […]

[3] = Baseline (before captopril 2 g/L in drinking water)
[4] = Week 3 of captopril 2 g/L in drinking water
[5] = Week 4 (2nd randomization; before the single injection of Example 10)
[6] = Week 5 (single injection of Example 10 on week 4; captopril 2 g/L in drinking water)
[7] = Week 6 (single injection of Example 10 on week 4; captopril 2 g/L in drinking water)
[8] = Table 5, Examples average of two replicates ± standard deviation

With `C[C@H](CS)C(=O)N1CCC[C@H]1C(=O)O` [Captopril, captopril] the “Ejection Fraction” value [1, 3] was 39.1%, the “Left Ventricle Diameter (end diastole)” value [1, 3] was 8.66 and the “Ejection Fraction” value [1, 4] was 38.4%. The “Left Ventricle Diameter (end diastole)” value [1, 4] was 8.57, the “Ejection Fraction” value [1, 5] was 36.1% and the “Left Ventricle Diameter (end diastole)” value [1, 5] was 8.64. The “Ejection Fraction” value [1, 6] was 36.2%, the “Left Ventricle Diameter (end diastole)” value [1, 6] was 8.64* and the “Ejection Fraction” value [1, 7] was 34.6%. The “Left Ventricle Diameter (end diastole)” value [1, 7] was 8.71*.

B1: Example 3: NRG4 D1G/V22Q, (GGGGS)3 linker, SEQ ID NO: 12, fused to IgG Fc dimer SEQ ID NO: 6 and 7 (protein)
chain 1: GGGGSGGGGSGGGGSGHEEPCGPSHKSFCLNGGLCYQIPTIPSPFCRCVENYTGARCEEVFL
chain 2: ECPPCPAPPVAGPSVFLFPPKPKDTLMISRTPEVTCVVVDVSHEDPEVQFNWYVDGVEVHNAKTKPREEQFNSTFRVVSVLTVVHQDWLNGKEYKCKVSNKGLPAPIEKTISKTKGQPREPQVYTLPPSREEMTKNQVSLWCLVKGFYPSDIAVEWESNGQPENNYKTTPPVLDSDGSFFLYSKLTVDKSRWQQGNVFSCSVMHEALHNHYTQKSLSLSPG
chain 3: B1 chain 2 with W141S, L143A, Y182V
In the case of B1, the EC50 [2, 8] is reported as 0.29 ± 0.01 nM.

B2: Example 4: NRG4 D1G/I26F, (GGGGS)3 linker, SEQ ID NO: 13, fused to IgG Fc dimer SEQ ID NO: 6 and 7 (protein)
chain 1: B1 chain 1 with Q37V, I41F
chain 2: B1 chain 2
chain 3: B1 chain 2 with W141S, L143A, Y182V
B2 gave an EC50 [2, 8] of 0.53 ± 0.05 nM.

B3: Example 2: NRG4 D1G/P8E, (GGGGS)3 linker, SEQ ID NO: 11, fused to IgG Fc dimer SEQ ID NO: 6 and 7 (protein)
chain 1: B1 chain 1 with P23E, Q37V
chain 2: B1 chain 2
chain 3: B1 chain 2 with W141S, L143A, Y182V
For B3, the EC50 [2, 8] was 2.77 ± 0.39 nM.

B4: Example 5: NRG4 D1G/E35A, (GGGGS)3 linker, SEQ ID NO: 14, fused to IgG Fc dimer SEQ ID NO: 6 and 7 (protein)
chain 1: B1 chain 1 with Q37V, E50A
chain 2: B1 chain 2
chain 3: B1 chain 2 with W141S, L143A, Y182V
For B4, the EC50 [2, 8] was 0.84 ± 0.27 nM.

B5: Example 6: NRG4 D1G/I26F/E44K, (GGGGS)3 linker, SEQ ID NO: 15, fused to IgG Fc dimer SEQ ID NO: 6 and 7 (protein)
chain 1: B1 chain 1 with Q37V, I41F, E59K
chain 2: B1 chain 2
chain 3: B1 chain 2 with W141S, L143A, Y182V
B5 gave an EC50 ([2]; Table 6) of 0.395 nM.

B6: Example 8: NRG4 D1G/I26F/P8E, (GGGGS)3 linker, SEQ ID NO: 17, fused to IgG Fc dimer SEQ ID NO: 6 and 7 (protein)
chain 1: B1 chain 1 with P23E, Q37V, I41F
chain 2: B1 chain 2
chain 3: B1 chain 2 with W141S, L143A, Y182V
B6 gave an EC50 ([2]; Table 6) of 0.403 nM.

B7: Example 7: NRG4 D1G/I26F/E44H, (GGGGS)3 linker, SEQ ID NO: 16, fused to IgG Fc dimer SEQ ID NO: 6 and 7 (protein)
chain 1: B1 chain 1 with Q37V, I41F, E59H
chain 2: B1 chain 2
chain 3: B1 chain 2 with W141S, L143A, Y182V
B7 gave an EC50 ([2]; Table 6) of 0.563 nM.
